Experimental data reported in patent US9113629B2, “4-amino-6-(4-substituted-phenyl)-picolinates and 6-amino-2-(4-substituted-phenyl)-pyrimidine-4-carboxylates and their use as herbicides” (DOW AGROSCIENCES LLC, priority 2013, dated 2015).
Where two headings read alike, the source gives them in different places.

Assays:
[1] = system: Key Broadleaf Weed and Crop Species; assay: Post-emergent Test II herbicidal activity (Table 5); assay type: in vivo; conditions: post-emergence, 336 h, 14 days after application; for pest or weed control at 70 g/ha: application rate 70 g ai/ha; for pest or weed control at 140 g/ha: application rate 140 g ai/ha
In short: (§1)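 Post-emergence foliar spray, 187 L/ha, track sprayer at 43 cm above canopy. Carrier: acetone/water/IPA/DMSO/Atplus 411F/Triton X-155. Plants at 1st–2nd true leaf; subirrigated afterwards; % injury scored visually at 14 d.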

[2] = system: Key Grass and Sedge Weeds as well as Grass Crops; assay: Post-emergent Test II herbicidal activity (Table 6); assay type: in vivo; conditions: post-emergence, 336 h; for pest or weed control at 70 g/ha: 70 g ai/ha; for pest or weed control at 140 g/ha: 140 g ai/ha
In short: as §1

[3] = ABUTH: velvetleaf (Abutilon theophrasti), read-out: Visual Growth Reduction (%) 14 Days After Application, ABUTH
[4] = AMARE: redroot pigweed (Amaranthus retroflexus), read-out: Visual Growth Reduction (%) 14 Days After Application, AMARE
[5] = BRSNN: oilseed-rape, canola (Brassica napus), read-out: Visual Growth Reduction (%) 14 Days After Application, BRSNN
[6] = CHEAL: lambsquarters (Chenopodium album), read-out: Visual Growth Reduction (%) 14 Days After Application, CHEAL
[7] = EPHHL: wild poinsettia (Euphorbia heterophylla), read-out: Visual Growth Reduction (%) 14 Days After Application, EPHHL
[8] = HELAN: sunflower (Helianthus annuus), read-out: Visual Growth Reduction (%) 14 Days After Application, HELAN
[9] = VIOTR: wild pansy (Viola tricolor), read-out: Visual Growth Reduction (%) 14 Days After Application, VIOTR
[10] = CYPES: yellow nutsedge (Cyperus esculentus), read-out: Visual Growth Reduction (%) 14 Days After Application, CYPES
[11] = DIGSA: crabgrass (Digitaria sanguinalis), read-out: Visual Growth Reduction (%) 14 Days After Application, DIGSA
[12] = ECHCG: barnyardgrass (Echinochloa crus-galli), read-out: Visual Growth Reduction (%) 14 Days After Application, ECHCG
[13] = ORYSA: rice (Oryza sativa), crop, read-out: Visual Growth Reduction (%) 14 Days After Application, ORYSA
[14] = SETFA: giant foxtail (Setaria faberi), read-out: Visual Growth Reduction (%) 14 Days After Application, SETFA
[15] = SORVU: grain sorghum (Sorghum vulgare), read-out: Visual Growth Reduction (%) 14 Days After Application, SORVU
[16] = TRZSS (wheat, Triticum aestivum), crop, read-out: Visual Growth Reduction (%) 14 Days After Application, TRZSS
[17] = ZEAMX: maize, corn (Zea mays), crop, read-out: Visual Growth Reduction (%) 14 Days After Application, ZEAMX

SMILES | pest or weed control at 70 g/ha [1, 3] | pest or weed control at 140 g/ha [1, 3] | pest or weed control at 70 g/ha [1, 4] | pest or weed control at 140 g/ha [1, 4] | pest or weed control at 70 g/ha [1, 5] | pest or weed control at 140 g/ha [1, 5] | pest or weed control at 70 g/ha [1, 6] | pest or weed control at 140 g/ha [1, 6] | pest or weed control at 70 g/ha [1, 7] | pest or weed control at 140 g/ha [1, 7] | pest or weed control at 70 g/ha [1, 8] | pest or weed control at 140 g/ha [1, 8] | pest or weed control at 70 g/ha [1, 9] | pest or weed control at 140 g/ha [1, 9] | pest or weed control at 140 g/ha [2, 10] | pest or weed control at 70 g/ha [2, 11] | pest or weed control at 140 g/ha [2, 11] | pest or weed control at 70 g/ha [2, 12] | pest or weed control at 140 g/ha [2, 12] | pest or weed control at 70 g/ha [2, 13] | further results
Nc1cc(-c2ccc(Br)c(F)c2F)nc(C(=O)O)c1Cl [Compound 91] | 85 to 94% | 95 to 100% | 95 to 100% | 95 to 100% | 75 to 84% | 85 to 94% | 85 to 94% | 85 to 94% | 95 to 100% | 95 to 100% | 85 to 94% | 85 to 94% | 95 to 100% | 95 to 100% | 95 to 100% | 85 to 94% | 85 to 94% | 95 to 100% | 95 to 100% | 0 to 29% | pest or weed control at 70 g/ha [2, 10]: 95 to 100%; pest or weed control at 140 g/ha [2, 13]: 0 to 29%; pest or weed control at 70 g/ha [2, 14]: 75 to 84%; pest or weed control at 140 g/ha [2, 14]: 85 to 94%; pest or weed control at 70 g/ha [2, 15]: 75 to 84%; pest or weed control at 140 g/ha [2, 15]: 75 to 84%; pest or weed control at 70 g/ha [2, 16]: 45 to 59%; pest or weed control at 140 g/ha [2, 16]: 45 to 59%; pest or weed control at 70 g/ha [2, 17]: 85 to 94%; pest or weed control at 140 g/ha [2, 17]: 85 to 94%; melting point: 173 to 175 °C
COC(=O)c1nc(-c2ccc(I)c(F)c2F)c(F)c(N)c1Cl [Compound 99] | 95 to 100% | 95 to 100% | 95 to 100% | 95 to 100% | 95 to 100% | 95 to 100% | 95 to 100% | 95 to 100% | 95 to 100% | 95 to 100% | 95 to 100% | 95 to 100% | 95 to 100% | 95 to 100% | 95 to 100% | 75 to 84% | 85 to 94% | 95 to 100% | 95 to 100% | 0 to 29% | pest or weed control at 140 g/ha [2, 13]: 0 to 29%; pest or weed control at 70 g/ha [2, 14]: 95 to 100%; pest or weed control at 140 g/ha [2, 14]: 95 to 100%; pest or weed control at 70 g/ha [2, 15]: 95 to 100%; pest or weed control at 140 g/ha [2, 15]: 95 to 100%; pest or weed control at 70 g/ha [2, 16]: 45 to 59%; pest or weed control at 140 g/ha [2, 16]: 60 to 74%; pest or weed control at 70 g/ha [2, 17]: 95 to 100%; pest or weed control at 140 g/ha [2, 17]: 95 to 100%; melting point: 168 to 170 °C
COC(=O)c1nc(-c2ccc(OC(F)F)cc2F)c(F)c(N)c1Cl [Compound 104] | 45 to 59% | 45 to 59% | 0 to 29% | 0 to 29% | 0 to 29% | 0 to 29% | 0 to 29% | 0 to 29% | 75 to 84% | 85 to 94% | 75 to 84% | 75 to 84% | 0 to 29% | 0 to 29% | 45 to 59% | 0 to 29% | 0 to 29% | 0 to 29% | 0 to 29% | 0 to 29% | pest or weed control at 70 g/ha [2, 10]: 0 to 29%; pest or weed control at 140 g/ha [2, 13]: 0 to 29%; pest or weed control at 70 g/ha [2, 14]: 0 to 29%; pest or weed control at 140 g/ha [2, 14]: 0 to 29%; pest or weed control at 70 g/ha [2, 15]: 0 to 29%; pest or weed control at 140 g/ha [2, 15]: 45 to 59%; pest or weed control at 70 g/ha [2, 16]: 0 to 29%; pest or weed control at 140 g/ha [2, 16]: 0 to 29%; pest or weed control at 70 g/ha [2, 17]: 45 to 59%; pest or weed control at 140 g/ha [2, 17]: 95 to 100%; melting point: 127 to 129 °C
